Results from PubChem BioAssay (NCI).
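In this assay, cells in 96-well plates receive the compound at five concentrations for 48 hours. Endpoints are linearly interpolated between the surrounding concentrations. Abbreviation: GI50, concentration required for 50% inhibition of growth. TGI denotes the concentration required for complete inhibition of growth.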

What was measured:
Assay in all cases: NCI-60 cell line screen, 48 h
DU-145 prostate = system: DU-145 prostate
SN12C renal = system: SN12C renal
HCT-15 colon = system: HCT-15 colon
NCI-H460 lung = system: NCI-H460 lung
A549 NSCLC = system: A549 NSCLC
SF-268 CNS = system: SF-268 CNS
OVCAR-8 ovarian = system: OVCAR-8 ovarian
RXF 393 renal = system: RXF 393 renal
SK-MEL-2 melanoma = system: SK-MEL-2 melanoma
CCRF-CEM leukemia = system: CCRF-CEM leukemia
HT29 colon = system: HT29 colon
SK-MEL-5 melanoma = system: SK-MEL-5 melanoma
LOX IMVI melanoma = system: LOX IMVI melanoma
SNB-19 CNS = system: SNB-19 CNS
OVCAR-3 ovarian = system: OVCAR-3 ovarian
786-0 renal = system: 786-0 renal
NCI/ADR-RES ovarian = system: NCI/ADR-RES ovarian
NCI-H226 lung = system: NCI-H226 lung
OVCAR-5 ovarian = system: OVCAR-5 ovarian
HS 578T breast = system: HS 578T breast
MALME-3M melanoma = system: MALME-3M melanoma
HOP-92 NSCLC = system: HOP-92 NSCLC
NCI-H23 lung = system: NCI-H23 lung
HCT-116 colon = system: HCT-116 colon
MCF7 breast = system: MCF7 breast
HL-60(TB) leukemia = system: HL-60(TB) leukemia
ACHN renal = system: ACHN renal
IGROV1 ovarian = system: IGROV1 ovarian
SW-620 colon = system: SW-620 colon
MDA-MB-435 = system: MDA-MB-435
K-562 leukemia = system: K-562 leukemia
HOP-62 NSCLC = system: HOP-62 NSCLC
SK-OV-3 ovarian = system: SK-OV-3 ovarian
T-47D breast = system: T-47D breast
NCI-H522 lung = system: NCI-H522 lung
SNB-75 CNS = system: SNB-75 CNS
MDA-MB-231 breast = system: MDA-MB-231 breast
A498 renal = system: A498 renal
PC-3 prostate = system: PC-3 prostate
MOLT-4 leukemia = system: MOLT-4 leukemia
SF-539 CNS = system: SF-539 CNS
UACC-257 melanoma = system: UACC-257 melanoma
SF-295 CNS = system: SF-295 CNS
U251 CNS = system: U251 CNS
M14 melanoma = system: M14 melanoma
SK-MEL-28 melanoma = system: SK-MEL-28 melanoma
CAKI-1 renal = system: CAKI-1 renal
BT-549 breast = system: BT-549 breast
EKVX NSCLC = system: EKVX NSCLC
RPMI-8226 leukemia = system: RPMI-8226 leukemia
UO-31 renal = system: UO-31 renal
TK-10 renal = system: TK-10 renal
KM12 colon = system: KM12 colon
COLO 205 colon = system: COLO 205 colon
OVCAR-4 ovarian = system: OVCAR-4 ovarian
UACC-62 melanoma = system: UACC-62 melanoma
SR leukemia = system: SR leukemia
HCC-2998 colon = system: HCC-2998 colon

COc1cc2c3c(n(CCCNCCCCN)c(=O)c2cc1OC)-c1cc2c(cc1C3=O)OCO2
GI50 (DU-145 prostate): 76.4 nM
TGI (DU-145 prostate): 5160 nM
GI50 (SN12C renal): 373 nM
TGI (SN12C renal): 5890 nM
GI50 (HCT-15 colon): 17500 nM
TGI (HCT-15 colon): > 54400 nM
GI50 (NCI-H460 lung): < 41 nM
TGI (NCI-H460 lung): 7380 nM
GI50 (A549 NSCLC): 5480 nM
TGI (A549 NSCLC): 25000 nM
GI50 (SF-268 CNS): 3100 nM
TGI (SF-268 CNS): 10300 nM
GI50 (OVCAR-8 ovarian): 1910 nM
TGI (OVCAR-8 ovarian): 8600 nM
GI50 (RXF 393 renal): 301 nM
TGI (RXF 393 renal): 11400 nM
GI50 (SK-MEL-2 melanoma): 4860 nM
TGI (SK-MEL-2 melanoma): 16400 nM
TGI (CCRF-CEM leukemia): > 40100 nM
GI50 (HT29 colon): 4570 nM
TGI (HT29 colon): > 100000 nM
GI50 (SK-MEL-5 melanoma): 2950 nM
TGI (SK-MEL-5 melanoma): 19200 nM
GI50 (LOX IMVI melanoma): 226 nM
TGI (LOX IMVI melanoma): 10100 nM
GI50 (SNB-19 CNS): 2650 nM
TGI (SNB-19 CNS): 18800 nM
GI50 (OVCAR-3 ovarian): 2770 nM
TGI (OVCAR-3 ovarian): 14100 nM
GI50 (786-0 renal): 2270 nM
TGI (786-0 renal): 20500 nM
GI50 (NCI/ADR-RES ovarian): 17300 nM
TGI (NCI/ADR-RES ovarian): > 90800 nM
GI50 (NCI-H226 lung): 1600 nM
TGI (NCI-H226 lung): 7440 nM
GI50 (OVCAR-5 ovarian): 13500 nM
TGI (OVCAR-5 ovarian): 41000 nM
GI50 (HS 578T breast): 3760 nM
TGI (HS 578T breast): 16100 nM
GI50 (MALME-3M melanoma): 1660 nM
TGI (MALME-3M melanoma): 7320 nM
GI50 (HOP-92 NSCLC): 738 nM
TGI (HOP-92 NSCLC): 3800 nM
GI50 (NCI-H23 lung): 1630 nM
TGI (NCI-H23 lung): 10700 nM
GI50 (HCT-116 colon): 1850 nM
TGI (HCT-116 colon): 15200 nM
GI50 (MCF7 breast): 82.9 nM
TGI (MCF7 breast): 22500 nM
GI50 (HL-60(TB) leukemia): 335 nM
GI50 (ACHN renal): 163 nM
TGI (ACHN renal): 16600 nM
GI50 (IGROV1 ovarian): > 21200 nM
TGI (IGROV1 ovarian): > 100000 nM
GI50 (SW-620 colon): 1400 nM
TGI (SW-620 colon): 27300 nM
GI50 (MDA-MB-435): 6110 nM
TGI (MDA-MB-435): 20400 nM
GI50 (K-562 leukemia): 4100 nM
TGI (K-562 leukemia): > 100000 nM
GI50 (HOP-62 NSCLC): 836 nM
TGI (HOP-62 NSCLC): 32500 nM
GI50 (SK-OV-3 ovarian): 9150 nM
TGI (SK-OV-3 ovarian): > 46600 nM
GI50 (T-47D breast): 3110 nM
TGI (T-47D breast): 27100 nM
GI50 (NCI-H522 lung): 5640 nM
TGI (NCI-H522 lung): > 100000 nM
GI50 (SNB-75 CNS): 10700 nM
TGI (SNB-75 CNS): 32200 nM
GI50 (MDA-MB-231 breast): 2860 nM
TGI (MDA-MB-231 breast): 9130 nM
GI50 (A498 renal): 5070 nM
TGI (A498 renal): 21000 nM
GI50 (PC-3 prostate): 4510 nM
TGI (PC-3 prostate): 26000 nM
TGI (MOLT-4 leukemia): > 19600 nM
GI50 (SF-539 CNS): 191 nM
TGI (SF-539 CNS): 2740 nM
GI50 (UACC-257 melanoma): 16800 nM
TGI (UACC-257 melanoma): 54700 nM
GI50 (SF-295 CNS): 169 nM
TGI (SF-295 CNS): 16500 nM
GI50 (U251 CNS): 234 nM
TGI (U251 CNS): 6540 nM
GI50 (M14 melanoma): 9190 nM
TGI (M14 melanoma): 27600 nM
GI50 (SK-MEL-28 melanoma): 4490 nM
TGI (SK-MEL-28 melanoma): > 54200 nM
TGI (CAKI-1 renal): 15000 nM
GI50 (BT-549 breast): 2430 nM
TGI (BT-549 breast): 16600 nM
GI50 (EKVX NSCLC): 18600 nM
TGI (EKVX NSCLC): 42700 nM
GI50 (RPMI-8226 leukemia): 355 nM
TGI (RPMI-8226 leukemia): 13100 nM
GI50 (UO-31 renal): 7390 nM
TGI (UO-31 renal): > 58500 nM
GI50 (TK-10 renal): 773 nM
TGI (TK-10 renal): 10100 nM
GI50 (KM12 colon): 4580 nM
TGI (KM12 colon): 21700 nM
GI50 (COLO 205 colon): 6020 nM
TGI (COLO 205 colon): > 46000 nM
GI50 (OVCAR-4 ovarian): 7310 nM
TGI (OVCAR-4 ovarian): 29900 nM
GI50 (UACC-62 melanoma): 2100 nM
TGI (UACC-62 melanoma): 11300 nM

CN(C)C/C=C/C(=O)Nc1ccc(C(=O)Nc2cccc(Nc3ncc(Cl)c(-c4c[nH]c5ccccc45)n3)c2)cc1
GI50 (DU-145 prostate): 30.7 nM
TGI (DU-145 prostate): 810 nM
GI50 (SN12C renal): 24.9 nM
GI50 (HCT-15 colon): 229 nM
TGI (HCT-15 colon): > 100000 nM
GI50 (NCI-H460 lung): 265 nM
TGI (NCI-H460 lung): 904 nM
GI50 (A549 NSCLC): 96.3 nM
TGI (A549 NSCLC): > 100000 nM
GI50 (OVCAR-8 ovarian): 42.8 nM
TGI (OVCAR-8 ovarian): > 100000 nM
GI50 (RXF 393 renal): 15.7 nM
TGI (RXF 393 renal): 39.7 nM
GI50 (SK-MEL-2 melanoma): 21 nM
TGI (SK-MEL-2 melanoma): 68.2 nM
GI50 (CCRF-CEM leukemia): < 10 nM
TGI (CCRF-CEM leukemia): > 100000 nM
GI50 (HT29 colon): 38.5 nM
TGI (HT29 colon): 678 nM
GI50 (SK-MEL-5 melanoma): 35 nM
TGI (SK-MEL-5 melanoma): > 100000 nM
GI50 (LOX IMVI melanoma): 13.3 nM
TGI (LOX IMVI melanoma): 85.6 nM
GI50 (SNB-19 CNS): 27.2 nM
TGI (SNB-19 CNS): > 35300 nM
GI50 (OVCAR-3 ovarian): < 12.2 nM
TGI (OVCAR-3 ovarian): 90.3 nM
GI50 (SR leukemia): 17 nM
TGI (SR leukemia): > 100000 nM
GI50 (786-0 renal): 44.1 nM
GI50 (NCI/ADR-RES ovarian): 1540 nM
TGI (NCI/ADR-RES ovarian): > 100000 nM
GI50 (NCI-H226 lung): 106 nM
TGI (NCI-H226 lung): 369 nM
GI50 (OVCAR-5 ovarian): 53.1 nM
GI50 (HS 578T breast): 36.3 nM
TGI (HS 578T breast): 195 nM
GI50 (MALME-3M melanoma): 21.2 nM
TGI (MALME-3M melanoma): 87.3 nM
GI50 (NCI-H23 lung): 25.7 nM
TGI (NCI-H23 lung): 133 nM
GI50 (HCT-116 colon): < 13.1 nM
GI50 (HCC-2998 colon): 15.4 nM
TGI (HCC-2998 colon): 203 nM
GI50 (MCF7 breast): < 11.6 nM
GI50 (ACHN renal): 95.7 nM
GI50 (IGROV1 ovarian): 25.1 nM
GI50 (SW-620 colon): 31 nM
TGI (SW-620 colon): 11300 nM
GI50 (MDA-MB-435): 35.2 nM
TGI (MDA-MB-435): 274 nM
GI50 (K-562 leukemia): < 14.8 nM
TGI (K-562 leukemia): > 100000 nM
GI50 (HOP-62 NSCLC): 69.7 nM
TGI (HOP-62 NSCLC): > 100000 nM
GI50 (SK-OV-3 ovarian): 120 nM
TGI (SK-OV-3 ovarian): > 100000 nM
GI50 (T-47D breast): 28.4 nM
TGI (T-47D breast): > 100000 nM
GI50 (NCI-H522 lung): 17.2 nM
TGI (NCI-H522 lung): 94 nM
GI50 (SNB-75 CNS): 31.6 nM
TGI (SNB-75 CNS): 101 nM
GI50 (MDA-MB-231 breast): 33.2 nM
TGI (MDA-MB-231 breast): 330 nM
GI50 (A498 renal): 18.9 nM
TGI (A498 renal): 119 nM
GI50 (PC-3 prostate): 31.5 nM
TGI (PC-3 prostate): 191 nM
GI50 (MOLT-4 leukemia): 32 nM
TGI (MOLT-4 leukemia): > 100000 nM
GI50 (SF-539 CNS): 19.9 nM
TGI (SF-539 CNS): 57.5 nM
GI50 (UACC-257 melanoma): 21.6 nM
TGI (UACC-257 melanoma): > 100000 nM
GI50 (SF-295 CNS): 155 nM
TGI (SF-295 CNS): 475 nM
GI50 (U251 CNS): 23.8 nM
TGI (U251 CNS): > 38200 nM
GI50 (M14 melanoma): 34.6 nM
TGI (M14 melanoma): 173 nM
GI50 (SK-MEL-28 melanoma): 21.5 nM
TGI (SK-MEL-28 melanoma): 532 nM
GI50 (CAKI-1 renal): 60.7 nM
TGI (CAKI-1 renal): 686 nM
GI50 (BT-549 breast): 33.6 nM
TGI (BT-549 breast): 420 nM
GI50 (EKVX NSCLC): 30 nM
TGI (EKVX NSCLC): 283 nM
GI50 (UO-31 renal): 199 nM
TGI (UO-31 renal): 666 nM
GI50 (TK-10 renal): 60.2 nM
TGI (TK-10 renal): 1340 nM
GI50 (KM12 colon): 74.7 nM
TGI (KM12 colon): 232 nM
GI50 (COLO 205 colon): 12.1 nM
TGI (COLO 205 colon): 56.2 nM
GI50 (OVCAR-4 ovarian): 21 nM
GI50 (UACC-62 melanoma): 43 nM
TGI (UACC-62 melanoma): 259 nM
